# Source: US8338423B2, “Compositions for the treatment of hyperphenylalaninemia” (Universidad de Zaragoza, priority 2007, dated 2012)
# Legend:
# [1] = tested on: wt-PAH and I65T and R68S mutants expressed in A293 cells; assay: PAH activity in extracts of transiently transfected A293 cells; format: cell-based, human; conditions: 40 μM compound, 24 h, vs DMSO 1% controls (FIG. 4A)
# Procedure: (§1) Human embryonic kidney cells (A293; purchased from Invitrogen) were grown in Dulbecco's Modified Eagle's Medium (DMEM) containing 4.5 g/l glucose, 10% (v/v) fetal calf serum, 2 mM L-glutamine, 100 i.u./ml penicillin, 100 μg/ml streptomycin and 0.25 mg/ml G-418. A293 cells were transiently transfected with 1 μg of pcDNA3-PAH expression vector (wt or mutant PAH constructs), using the lipofectamine system (Gibco, Invitrogen) as described by the manufacturer. Pharmacological chaperones were added after 5 h of transfection (final concentration 40 μM ligand in DMSO 1%), incubated for 24 h and cells were then harvested and stored at −80° C. […]
# (§2) Western blot analyses were performed after SDS-PAGE (10% acrylamide) using as primary antibody a monoclonal mouse ant-human PAH (Chemicon, Australia) and as secondary antibody a goat anti-mouse HRP conjugate (Bio-Rad, US). Detection was performed using a chemiluminiscence method (ECL; Amersham Biosciences) and quantified an a Fluor-S™ Multilmager (Bio-Rad, US) using Quantify one v. […]
# (§3) After transfection of A293 cells with constructs carrying wt-PAH and PKU mutants cDNA, the cells were incubated for 24 h in the presence or absence of 40 μM of hit compounds 11 and 13. Cell were harvested and immunoreactive PAH protein and PAH activity were measured in soluble cell extracts. […]
# Pah-mRNA = Pah-mRNA expression in mouse liver by quantitative real-time PCR; format: in vivo; conditions: treated mice compared to controls, 10 days oral
# Procedure: Animal experiments were performed by Beat Töny (University of Zurich Children's Hospital). 25 μl/day of 10% DMSO (Group 1, control) or the solutions of Compound 11 (Group 2) or Compound 13 (Group […]) were administered orally for 10 days to young adult C57BI/6 mice (all females) exactly 12 weeks old and with weight between 19 to 23 g were in each group, i.e. in Group 2 and 3 animals were given about 5.9 mg/kg/day. Five animals were treated in each group, and no weight change was experienced upon treatment, i.e. <5% change between start and end. Animals were sacrificed at day 10 of treatment, and their livers were sectioned in two frozen immediately in liquid nitrogen, then the frozen half-livers were sent to the Department of Biomedicine, University of Bergen in dry ice. […]
# The concentration of soluble protein was about 35 mg/ml of liver extract, similar in each group. The hepatic PAH response to oral supplementation of DMSO and of Compounds 11, 13 in 10% DMSO was analyzed b determining: • i) PAH activity, as described, after removal of free amino acids and contaminants of low molecular weight by using Zebra™ Desalt Spin columns(Pierce). • ii) Pah-mRNA expression by quantitative real-time PCR analysis, performed as reported
# [2] = tested on: PAH protein expressed in A293 cells; assay: Immunoreactive PAH protein (Western blot) in transfected A293 cells; format: cell-based, human; conditions: 40 μM compound, 24 h (FIG. 4B)
# Procedure: as §1, §2, §3
Compound,PAH activity enhancement [1],Pah-mRNA expression (Pah-mRNA),PAH immunoreactive protein [2]
"Cc1ccnc(-n2c(=S)[nH]c3sc(C)c(C)c3c2=O)c1 [Compound 13, 5,6-dimethyl-3-(4-methyl-2-pyridinyl)-2-thioxo-2,3 dihydrothieno[2,3-d]pyrimidin-4(1H)-one]",40-50%,–,–
"Nc1c(-c2ccc3ccccc3n2)c2ccc([N+](=O)[O-])cc2c(=O)n1Cc1ccccc1 [Compound 11, 3-amino-2-benzyl-7-nitro-4-(2-quinolyl)-1,2-dihydroisoquinolin-1-one]",60-100%,No change,increase in PAH immunoreactive protein was observed
